Results taken from patent US7960349B2 (Bristol-Myers Squibb Company, priority 2006, dated 2011).
Where a SMILES comes first, the peptide text is derived from it. [ ]: non-standard residue; d: D form. ξ: configuration not given here. Ala(6-(2-MePh)pyridin-3-yl) = Cc1ccccc1-c1ccc(C[C@H](N)C(=O)O)cn1; Bip(2'-Et-4'-OMe) = CCc1cc(OC)ccc1-c1ccc(C[C@H](N)C(=O)O)cc1; ξαMePhe(2-F) = CC(N)(Cc1ccccc1F)C(=O)O; ξαMeP = CC1(C(=O)O)CCCN1

Assays:
Human GLP-1 Receptor = molecular target: T1, Human GLP-1 Receptor (Homo sapiens, UniProt P43220); experiment: Cyclic AMP determination in CHO cells expressing human GLP-1 receptor; type: cell-based; details: for Emax: CHO, percent of maximal GLP-1 stimulated activity; for Emax / Mean Hill: human GLP-1 receptor
T1 construct: Full-length human glucagon-like peptide 1 receptor was stably expressed in CHO-K1 cells; expressed in transfected cells; host or cells: CHO-K1 (clone CHO-GLP1R-19)
Method: (§1) CHO-GLP-1R-19 cells (20,000 in 100 μl of media) were plated into each well of a 96-well tissue culture microtiter plate and incubated overnight in a 5% CO2 atmosphere at 37° C. On the day of the assay, cells were washed once with 100 μl of phosphate-buffered saline (PBS). A Biomek 2000 was used to serially dilute all peptides prior to beginning the assay. Serial dilutions were carried out in 100% DMSO.
(§2) 50 μl of each cAMP standard was added by hand and 70 μl of mix reagent (Amersham cAMP SPA kit) was added using the multidrop. […] This standard curve was used to convert CPM to pmol of cAMP.
(§3) Cell plates and peptide plates were loaded onto the Platemate. The media was aspirated from the wells and discarded. 100 uL per well of the peptide/buffer mixture were then added from the peptide plates to initiate the assay. After 30 min. of incubation the peptide/buffer was removed and 50 uL of the lysis reagent 1 solution was added per well. The plate was kept for one hour at RT or overnight if refrigerated and sealed.
(§4) Dose dependence for Compounds was determined at half-log concentrations in duplicate. […] A standard curve was determined using known amounts of cyclic AMP. […] The data were analyzed by nonlinear regression curve fitting (4 parameter sigmoidal dose-response curve) to determine the EC50 of the compounds.

Mouse GLP-1 Receptor = molecular target: T2, Mouse GLP-1 Receptor (Mus musculus, UniProt O35659); experiment: Stimulation of cAMP synthesis in CHO cells expressing mouse GLP-1 receptor; type: cell-based; details: for Emax: CHO, percent of maximal GLP-1 stimulated activity
T2 construct: expressed in transfected cells; host or cells: CHO cells
T2 sequence (O35659 22-463): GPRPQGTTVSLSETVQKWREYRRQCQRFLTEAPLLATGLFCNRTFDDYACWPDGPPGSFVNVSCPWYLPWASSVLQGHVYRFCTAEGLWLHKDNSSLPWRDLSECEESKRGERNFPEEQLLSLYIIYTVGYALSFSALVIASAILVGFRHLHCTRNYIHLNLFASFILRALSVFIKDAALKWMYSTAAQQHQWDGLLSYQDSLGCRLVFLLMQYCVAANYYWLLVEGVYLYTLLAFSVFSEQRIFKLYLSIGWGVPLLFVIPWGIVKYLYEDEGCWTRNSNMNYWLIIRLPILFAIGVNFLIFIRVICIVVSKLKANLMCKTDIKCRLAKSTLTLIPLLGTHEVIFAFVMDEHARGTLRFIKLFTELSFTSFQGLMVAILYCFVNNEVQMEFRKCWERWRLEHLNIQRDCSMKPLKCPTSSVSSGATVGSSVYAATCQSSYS
Method: as §1, §2, §3, §4

[1] = Dog pharmacokinetic study; type: in vivo; details: sc 67 μg/kg; vehicle propylene glycol/pH 7.4 phosphate buffer (1:1)
Method: The pharmacokinetic parameters of the Compounds of SEQ ID NO: 9, 118, 151 and 158 were determined in male beagle dogs (n=3-4, 14±1 kg). Following an overnight fast, each animal received the Compounds of SEQ ID NO: 9, 118, 151 and 158 either as an intravenous bolus via femoral vein (67 μg/kg) or by subcutaneous injection given at near the shoulder blades (67 μg/kg). Each animal received both intravenous and subcutaneous doses with a one-week washout between doses following a crossover design. The dosing vehicle for both routes of administration was propylene glycol:pH 7.4 phosphate buffer (50:50) or 0.2 M Tris (pH 8.0). Serial blood samples were collected in EDTA-containing microcentrifuge tubes at predose, 0.083, 0.25, 0.5, 0.75, 1, 2, 4, 6, 8, 24, and 30 hours post-dose after intravenous administration; at predose, 0.25, 0.5, 0.75, 1, 2, 4, 6, 8, 24, and 30 hours post-dose after subcutaneous administration. Approximately 0.3 mL of blood was collected at each time point. Blood samples were immediately centrifuged at 4° C. The obtained plasma was frozen with dry ice and stored at −20° C. Plasma drug levels were determined using the LC-MS/MS assay described below.
Plasma samples from the in vivo dog study were prepared for analysis by precipitating plasma proteins with two volumes of AcCN containing an internal standard. The samples were vortex mixed and the precipitated proteins were removed by centrifugation. The resulting supernatants were transferred to a 96-well plate and 10 μL were injected for TFC-LC/MS/MS analysis.
The TFC-HPLC system (Cohesive TX-1 Flux, Aria 2300 System) consisted of a loading pump, an eluting pump, and a CTC PAL autosampler (Cohesive Technologies, Franklin, Mass.). The columns used were Phenomenex Synergi Fusion-RP (C18, 2.0×50 mm, 4μ) (Phenomenex, Torrance, Calif.) as the analytical column and Turbo-Flow (TF) HTLC Cyclone column (0.5×50 mm) (Cohesive Technologies, Franklin, Mass.) as the extraction column for on-line sample processing. The mobile phase A consisted of 10 mM ammonium formate and 0.1% formic acid in water and mobile phase B consisted of 0.1% formic acid in AcCN. Turbo-Flow Chromatography was used to obtain a cleaner sample. A rapid gradient elution was used for analyte separation. The samples were injected onto the Turbo-Flow HTLC Cyclone column and analytes were separated from biological fluid components with using 100% H2O at 1.5 mL/min. The TF column was back flushed and analytes were back eluted from the TF to HPLC analytical column using a ramp to 60% B over 2 min and held there for 30 seconds at 0.3 mL/min to separate and to elute the analytes from the HPLC column into the mass spectrometer. Both columns were washed for an additional minute and then both columns were re-equilibrated at initial conditions.
The HPLC was interfaced to a Sciex API 4000 mass spectrometer (Applied Biosystems, Foster City, Calif.) and was equipped with a TurboIonspray ionization source. Ultra high purity nitrogen was used as the nebulizing and turbo-gas. The temperature of turbo-gas was set at 300° C. and the interface heater was set at 60° C. Selected Reaction Monitoring (SRM) was used for data acquisition. Multiple charged ion species, i.e. (M+2H)^2+ for Compound of SEQ ID NO: 158 were selected in Q1 and were collisionally dissociated with high purity nitrogen at a pressure of 3.5×10^−3 torr in Q2 to form specific product ions which were subsequently monitored in Q3. The ion transitions and voltages are summarized below (Table 4).
The standard curve concentrations, ranging from 1 to 1000 nM, were analyzed in duplicate. The curves were fitted with a linear regression weighted by reciprocal concentration […]. Quality control (QC) samples, prepared in blank matrix at the same concentrations as the standards were also analyzed in each analytical set. […]

[2] = Exposure during ipGTT in ob/ob mice; type: in vivo, mouse; details: sc injection
Method: (§5) Peptides were dissolved in an appropriate vehicle at a concentration in nmol/ml equivalent to the dose that was to be administered in nmol/kg so that each mouse would receive the same volume/weight of dosing solution. Male C57BL/6-ob/ob mice (10 weeks old) were randomized into groups of 6 mice per group based on fed plasma glucose and body weight. After an overnight fast, mice were weighed and placed in the experimental lab. After 30 min in the environment, the mice were bled via tail tip at −30 min and immediately injected subcutaneously (sc) with vehicle or the peptide dissolved in vehicle (0.1 ml solution/100 g body weight). At time 0 the mice were bled and then injected intraperitoneally with 50% glucose (2 g/kg) to initiate the intraperitoneal glucose tolerance test (ipGTT). The mice were bled 30, 60, 120 and 180 min after the glucose injection. Blood samples were drawn into potassium EDTA, placed on ice during the study and subsequently centrifuged for 10 min at 3000 rpm at 4° C. Plasma samples were diluted 11-fold for glucose analysis in the Cobas System. Another 5 μl plasma sample was diluted 5-fold with 20 μl of Sample Diluent (Insulin ELISA assay kit, Crystal Chem. Inc.) and stored at −20° C. for subsequent analysis using the Ultra Sensitive Mouse Insulin ELISA kit (Crystal Chem Inc.).

ob/ob mice = experiment: Intraperitoneal glucose tolerance test (ipGTT) in ob/ob mice after sc injection; type: in vivo, mouse; details: for Potency in ob/ob mice ED50: sc injection, plasma glucose AUC in ipGTT
Method: as §5

T1 sequence (P43220 24-463): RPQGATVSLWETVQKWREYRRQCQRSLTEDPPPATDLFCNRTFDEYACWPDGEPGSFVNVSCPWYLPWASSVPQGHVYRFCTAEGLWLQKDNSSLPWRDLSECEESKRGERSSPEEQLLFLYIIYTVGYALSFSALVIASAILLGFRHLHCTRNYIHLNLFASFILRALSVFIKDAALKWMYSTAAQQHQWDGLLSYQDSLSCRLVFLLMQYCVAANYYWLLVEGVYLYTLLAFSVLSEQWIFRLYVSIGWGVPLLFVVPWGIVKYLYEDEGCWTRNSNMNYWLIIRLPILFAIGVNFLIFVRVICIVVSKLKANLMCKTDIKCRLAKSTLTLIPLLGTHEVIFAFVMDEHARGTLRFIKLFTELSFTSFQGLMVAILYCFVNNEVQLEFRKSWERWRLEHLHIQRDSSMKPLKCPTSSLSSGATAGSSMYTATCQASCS

| SMILES | Emax (Human GLP-1 Receptor) | Mean Hill (Human GLP-1 Receptor) | Mean Hill (Mouse GLP-1 Receptor) | Emax (Mouse GLP-1 Receptor) | EC50 (Human GLP-1 Receptor) | Exposure in dogs (sc@67 μg/kg) [1] | Exposure/dose during ipGTT in ob/ob mice [2] | Potency in ob/ob mice: % AUC Reduction in Plasma Glucose in an IP Glucose Tolerance Test after SC Injection of Compound (ob/ob mice; 10 nmol/kg sc, relative to vehicle-treated group) | plasma glucose AUC decreased (ob/ob mice; 30 nmol/kg sc, ipGTT ob/ob mice) | Potency in ob/ob mice ED50 (ob/ob mice) | Potency in ob/ob mice ED50 (ob/ob mice; listed as 118) | effect on postprandial plasma glucose (ob/ob mice; sc, ipGTT ob/ob mice, 0 to 180 or 210 min) |
| --- | --- | --- | --- | --- | --- | --- | --- | --- | --- | --- | --- | --- |
| CCc1cc(O)ccc1-c1ccc(C[C@H](NC(=O)[C@H](CC(=O)O)NC(=O)[C@H](Cc2c[nH]cn2)NC(=O)[C@@H](NC(=O)[C@](C)(Cc2ccccc2F)NC(=O)[C@@H](NC(=O)CNC(=O)[C@H](CCC(=O)O)NC(=O)[C@]2(C)CCCN2C(=O)C(Cc2c[nH]cn2)OC)[C@@H](C)O)[C@@H](C)O)C(=O)N[C@@H](Cc2ccc(-c3ccccc3C)nc2)C(N)=O)cc1 (single isomer, unassigned) [SEQ ID NO: 175] | 105% | 2.8 | 2.7 | 100% |  |  |  |  |  |  |  |  |
| CCc1cc(O)ccc1-c1ccc(C[C@H](NC(=O)[C@H](CC(=O)O)NC(=O)[C@H](Cc2c[nH]cn2)NC(=O)[C@@H](NC(=O)[C@](C)(Cc2ccccc2F)NC(=O)[C@@H](NC(=O)CNC(=O)[C@H](CCC(=O)O)NC(=O)[C@]2(C)CCCN2C(=O)C(Cc2c[nH]cn2)OC)[C@@H](C)O)[C@@H](C)O)C(=O)N[C@@H](Cc2ccc(-c3ccccc3C)nc2)C(N)=O)cc1 (single isomer, unassigned) [SEQ ID NO: 176] |  | 3.1 | 1.9 |  |  |  |  |  |  |  |  |  |
| CCc1cc(O)c(I)cc1-c1ccc(C[C@H](NC(=O)[C@H](CC(=O)O)NC(=O)[C@H](CO)NC(=O)[C@@H](NC(=O)C(C)(Cc2ccccc2F)NC(=O)[C@@H](NC(=O)CNC(=O)[C@H](CCC(=O)O)NC(=O)C2(C)CCCN2C(=O)[C@H](Cc2c[nH]cn2)NC(=O)OC)[C@@H](C)O)[C@@H](C)O)C(=O)N[C@@H](Cc2ccc(-c3ccccc3C)nc2)C(N)=O)cc1 (stereo partly shown) [SEQ ID NO: 164] | 97.2% | 1.5 | 2.7 | 103% | 0.01 nM |  |  |  |  |  |  |  |
| CCc1cc(OC)ccc1-c1ccc(C[C@H](NC(=O)[C@H](CC(=O)O)NC(=O)[C@H](CO)NC(=O)[C@@H](NC(=O)C(C)(Cc2ccccc2F)NC(=O)[C@@H](NC(=O)CNC(=O)[C@H](CCC(=O)O)NC(=O)C2(C)CCCN2C(=O)[C@@H](N)Cc2c[nH]cn2)[C@@H](C)O)[C@@H](C)O)C(=O)N[C@@H](Cc2ccc(-c3ccccc3C)nc2)C(N)=O)cc1 (stereo partly shown) [SEQ ID NO: 118] (H-H[ξαMeP]EGT[ξαMePhe(2-F)]TSD[Bip(2'-Et-4'-OMe)][Ala(6-(2-MePh)pyridin-3-yl)]-NH2) |  |  |  |  |  | 4.02 µM·h | 4.4 nM * h/nmol/kg | −70% (p < 0.001) | 81% | 2.5 nmol/kg | ED50 = 2.5 nmoles/kg | statistically significant decrease |
| CCc1cc(O)ccc1-c1ccc(C[C@H](NC(=O)[C@H](CC(=O)O)NC(=O)[C@H](CO)NC(=O)[C@@H](NC(=O)[C@](C)(Cc2ccccc2F)NC(=O)[C@@H](NC(=O)CNC(=O)[C@H](CCC(=O)O)NC(=O)[C@]2(C)CCCN2C(=O)C(Cc2c[nH]cn2)OC)[C@@H](C)O)[C@@H](C)O)C(=O)N[C@@H](Cc2ccc(-c3ccccc3C)nc2)C(N)=O)cc1 (single isomer, unassigned) [SEQ ID NO: 173] | 95.6% | 2.6 | 1.4 | 99.7% |  |  |  |  |  |  |  |  |
